The results in this text go back to patent US8367727B2, “Method of using abscisic acid to treat diseases and disorders” (priority 2006, dated 2013).

Type in all cases: in vivo
Data set [1] is described as follows: Body weight, organ weights and feed intake of db/db mice. As for the experimental part: (§1) Experiment 1: mice (n=25) were fed high-fat (>40% energy from fat), isocaloric, isonitrogenous diets containing 0, 100, 200, 400, and 800 mg of a racemic (±) ABA mixture/kg diet for 36 days (Table 1) (Sigma). These doses were chosen based on the standard concentrations of TZDs utilized in the treatment of NIDDM. The mice were weighed and their food intake was recorded daily. On day 36 of the study fasted mice (12 h) were bled through the caudal vein and fasting blood glucose concentrations were determined. To investigate the ability of ABA to normalize glucose concentrations, an intraperitoneal glucose tolerance test (IPGTT) was performed on day 36 on the fasted mice. Briefly, mice were bled at 0, 10, 25, and 45 minutes following the administration of glucose (2 g/kg) for measurement of plasma glucose levels. […] Weights were recorded for WAT, interscapular brown adipose tissue (BAT), and liver.
(§2) Experiment 2: The ABA dose utilized (100 mg ABA/kg) was based on the results obtained from the IPGTT of the ABA titration study (i.e., Experiment 1). Mice in experiment 2 were fed high-fat diets containing 0 or 100 mg ABA/kg for 36 days. Their body weights and food intake was recorded daily, and blood was collected on day 36 of the study during an IPGTT. This IPGTT included one additional 100 minutes time point. […] Weights were recorded for abdominal WAT, BAT, and liver.

In data set [2] the test system is db/db mice. Briefly: Fasting blood glucose in db/db mice fed high-fat diets for 36 days. The settings on record: day 36. As to the method:
Four week-old, male BKS.Cg-+Lepr^db/+Lepr^db/OlaHsd (db/db) mice were purchased from Harlan Laboratories (Indianapolis, Ind.) and maintained at the animal facilities at Virginia Polytechnic Institute and State University in a room maintained at 75° F., with a 12:12 h light-dark cycle starting from 6:00 AM. All experimental procedures were approved by the Institutional Animal Care and Use Committee of Virginia Polytechnic Institute and State University and met or exceeded requirements of the Public Health Service/National Institutes of Health and the Animal Welfare Act.
as §1, §2
Experiment 1 was a dose-titration study, where we fed 4-week old db/db mice (n=25) diabetogenic, high fat diets containing either 0, 100, 200, 400, or 800 mg racemic ABA mixture/kg diet. […] These in vivo results are in agreement with the transfection findings showing no difference in PPAR γ transactivation between 10 and 50 μM ABA.

The subject of another data set is MCP-1, PPAR γ, CD36. Briefly: Real-time qRT-PCR of stromal-vascular cells (SVCs), adipocytes and liver, db/db mice. An excerpt:
Complementary DNA (cDNA) concentrations for genes of interest were examined by real-time quantitative PCR using an iCycler IQ System and the iQ SYBR green supermix (BioRad). A standard curve was generated for each gene using 10-fold dilutions of purified amplicons starting at 5 pg of cDNA and used later to calculate the starting amount of target cDNA in the unknown samples. SYBR green I is a general double-stranded DNA intercalating dye and may therefore detect nonspecific products and primer/dimers in addition to the amplicon of interest. In order to determine the number of products synthesized during the real-time PCR, a melting curve analysis was performed on each product. Real-time PCR was used to measure the starting amount of nucleic acid of each unknown sample of cDNA on the same 96-well plate. Results are presented as starting quantity of target cDNA (picograms) per microgram of total RNA.
A general note: Real-time PCR tracks product formation cycle by cycle.

The test system of data set [3] is db/db mice. Briefly: Intraperitoneal glucose tolerance test (IPGTT) in db/db mice. As to the method: as §1, §2
[4] abbreviates: Experiment 2, 100 mg ABA/kg diet.

Molecules are shown by their SMILES. Marks after values point to notes of the source that are not given here.

Turning to `CC1=CC(=O)CC(C)(C)C1(O)/C=C/C(C)=C\C(=O)O` (racemic) [ABA, abscisic acid], the “final body weight less than control mice” value in data set [1] (41.34 g vs 43.54 g, not statistically significant) is “approximately 2.2 grams”. For the same compound, the Total feed intake entry in data set [1] (between treatment groups) was “did not differ significantly”. Moreover, in data set [1] (db/db mice, 100 mg ABA/kg diet, day 36), the Final body weight result is reported as “no significant differences in body weights”. Also, the “fasting blood glucose (FBG) concentrations versus control diet” value with db/db mice [2] (100 to 800 mg ABA/kg diet) is “significantly lower”. In addition, the Fasting glucose is recorded as 219.6^b mg/dL in the data set with db/db mice [2] (Experiment 1, 100 mg ABA/kg diet); 210.2^b mg/dL with db/db mice [2] (Experiment 1, 200 mg ABA/kg diet); 185.6^a mg/dL in the data set with db/db mice [2] (Experiment 1, 400 mg ABA/kg diet); 202.0^b mg/dL in the data set with db/db mice [2] (Experiment 1, 800 mg ABA/kg diet); 190.7^b mg/dL with db/db mice [2] (setting [4]). Further, in the data set on MCP-1, PPAR γ, CD36 (P=0.05), the “MCP-1 mRNA in the adipocyte fraction” value is given as “significant reduction”. For the same compound, the CD36 expression entry in the data set on MCP-1, PPAR γ, CD36 (SVCs and adipocytes) is recorded as “only significantly elevated in SVCs”. For the same compound, the “PPAR γ mRNA expression” value in the data set on MCP-1, PPAR γ, CD36 (SVCs and adipocytes) is “higher in both SVCs and adipocytes”. The “mRNA expression of MIP-1α or TLR-4” value with MCP-1, PPAR γ, CD36 (SVCs or adipocytes) is “did not see significant differences”. Moreover, the “decrease of MCP-1 mRNA in SVCs” value with MCP-1, PPAR γ, CD36 (db/db mice, 100 mg/kg diet, 36 days) was approximately 15 fold. Further, the “response in glucose homeostasis during the IPGTT, dose comparison” value in the data set with db/db mice [3] (Experiment 1, 100 mg ABA/kg dose) is “most favorable response”. Also, in the data set on db/db mice [3] (Experiment 1, day 36), the “response to the IPGTT” value is given as “improved response to the IPGTT”. Moreover, in the data set on db/db mice [3] (setting [4]), the “glucose levels during IPGTT versus control” value was “significantly lower at every time point up to 100 minutes”.
